Test results published in article PMC10360169 (Frontiers in Immunology, 2023).

System: Acar19
Assay type: binding, great reed warbler Acrocephalus arundinaceus
Settings: Table S5, half-life estimated from dissociation in scintillation proximity assay

Sequence	Stability T½ (h), peptide - Acar19
AFHQLVQVI [9-mer peptide]	0.3 h
AYAGLFTPL [9-mer peptide]	0.4 h
DAAKNQVAM [9-mer peptide]	0.2 h
DAAVVFPPV [9-mer peptide]	10.0 h
DALLNEENL [9-mer peptide]	2.0 h
DAMENPLSL [9-mer peptide]	0.2 h
DASFNASAI [9-mer peptide]	1.0 h
DAVRNAAAI [9-mer peptide]	0.3 h
DFGYATMAK [9-mer peptide]	0.3 h
DFIANTETI [9-mer peptide]	4.7 h
DFISMYFPW [9-mer peptide]	0.5 h
DFNEAIQAY [9-mer peptide]	0.3 h
DHIPIINTL [9-mer peptide]	0.3 h
DIKLIDIAL [9-mer peptide]	3.7 h
DIQKLVGKL [9-mer peptide]	0.4 h
DISPTNIPL [9-mer peptide]	0.2 h
DMNLEQWSV [9-mer peptide]	0.4 h
DMSTNAEYF [9-mer peptide]	0.2 h
DMWEHAFYL [9-mer peptide]	0.3 h
DPNPQEMVL [9-mer peptide]	0.1 h
DPNPQEVVL [9-mer peptide]	0.4 h
DPSGAYFAW [9-mer peptide]	0.1 h
DQIRNMSVI [9-mer peptide]	0.3 h
DSFPNSVTI [9-mer peptide]	1.4 h
DSIMLTATF [9-mer peptide]	1.5 h

Sequence	Stability T½ (h), peptide - Acar19
DTAKAFAYL [9-mer peptide]	0.5 h
DTDPLPVVF [9-mer peptide]	0.2 h
DTETLTTMF [9-mer peptide]	0.1 h
DTFGVIDTM [9-mer peptide]	0.2 h
DTRAIDQFF [9-mer peptide]	2.3 h
DVAKIEAPL [9-mer peptide]	11.4 h
DVSPILEAY [9-mer peptide]	0.1 h
DVVPMVTQM [9-mer peptide]	0.6 h
DWMERIEDF [9-mer peptide]	1.4 h
DWSGYSGSF [9-mer peptide]	0.3 h
DYAMHGTVF [9-mer peptide]	2.4 h
DYLQCVLQI [9-mer peptide]	6.6 h
DYLQYVLQI [9-mer peptide]	0.5 h
EAAGIAACL [9-mer peptide]	0.6 h
EAAKNVECI [9-mer peptide]	0.4 h
EDFEIFYNL [9-mer peptide]	0.4 h
EFKQILTDF [9-mer peptide]	3.6 h
ENALLVALF [9-mer peptide]	0.1 h
ETFRLLRSF [9-mer peptide]	0.1 h
EYAPFARLL [9-mer peptide]	1.1 h
EYARQVQMI [9-mer peptide]	0.4 h
FFSPVIASL [9-mer peptide]	0.9 h
FSIMIYFTF [9-mer peptide]	0.2 h
FSPRLCRPF [9-mer peptide]	0.4 h
FWPQHFGLI [9-mer peptide]	0.1 h

Sequence	Stability T½ (h), peptide - Acar19
FYPPVLQPI [9-mer peptide]	0.3 h
GFNKLRSTL [9-mer peptide]	0.4 h
GFPSLESSF [9-mer peptide]	0.1 h
GYAWIDFDI [9-mer peptide]	0.2 h
HAATNFREI [9-mer peptide]	0.1 h
HTAEIQQFF [9-mer peptide]	0.3 h
HYNAFHWAI [9-mer peptide]	0.3 h
HYNAFQWAI [9-mer peptide]	0.3 h
IAAPNMIAV [9-mer peptide]	0.1 h
IAASNLEQF [9-mer peptide]	0.1 h
IAKGIDAEF [9-mer peptide]	0.1 h
IALPVAWLF [9-mer peptide]	0.1 h
IANTTDHFF [9-mer peptide]	0.2 h
IASPILFPF [9-mer peptide]	0.5 h
IFDDLQGSL [9-mer peptide]	0.1 h
IFPSMYFLM [9-mer peptide]	0.1 h
IPAPGLGAL [9-mer peptide]	0.2 h
IPKYLEIEI [9-mer peptide]	0.2 h
IPNYLEIEI [9-mer peptide]	0.6 h
IQNALEKAL [9-mer peptide]	0.1 h
IQNATMDEF [9-mer peptide]	0.1 h
IQNEIMKPL [9-mer peptide]	0.2 h
IQNKLSSTF [9-mer peptide]	0.2 h
ISARGQELF [9-mer peptide]	0.1 h
ISASLAALF [9-mer peptide]	0.1 h

Sequence	Stability T½ (h), peptide - Acar19
ISDPLTSGL [9-mer peptide]	0.1 h
ITAALAWSL [9-mer peptide]	0.1 h
ITDWLNFTL [9-mer peptide]	0.1 h
ITFHNQRDF [9-mer peptide]	0.2 h
IYAAISYMI [9-mer peptide]	0.3 h
IYGIFQSTF [9-mer peptide]	0.1 h
IYTVIYYIF [9-mer peptide]	0.2 h
IYYWTAWLI [9-mer peptide]	0.2 h
KASSAWHYF [9-mer peptide]	0.2 h
KDPENFDHF [9-mer peptide]	0.2 h
KFHQIEKEF [9-mer peptide]	0.3 h
KSNGAQQWL [9-mer peptide]	0.1 h
LAASVFFTF [9-mer peptide]	0.2 h
LFPELDCFF [9-mer peptide]	1.6 h
LMNELGVPF [9-mer peptide]	0.6 h
LRHSTAHLL [9-mer peptide]	0.1 h
LYIEILRLL [9-mer peptide]	0.1 h
LYPTFYCLF [9-mer peptide]	0.4 h
MAMGILHTI [9-mer peptide]	0.1 h
MFMMIFHFV [9-mer peptide]	0.4 h
MPARLWLCL [9-mer peptide]	0.9 h
MSNPLTSPI [9-mer peptide]	6.3 h
MYLRTIYDL [9-mer peptide]	4.0 h
MYMALIAAF [9-mer peptide]	0.3 h
NAFHHPSAV [9-mer peptide]	0.1 h

Sequence	Stability T½ (h), peptide - Acar19
NHIRIEYII [9-mer peptide]	0.4 h
NPLEIYQEI [9-mer peptide]	0.8 h
NPSVLKILL [9-mer peptide]	0.2 h
NTARLMAGA [9-mer peptide]	0.2 h
NTDEIPELI [9-mer peptide]	0.2 h
NTFAAWLPM [9-mer peptide]	0.6 h
NVGRILGYV [9-mer peptide]	0.5 h
NYFNRMFHF [9-mer peptide]	0.7 h
NYMPYVFTL [9-mer peptide]	14.9 h
NYNGLLSSI [9-mer peptide]	19.1 h
QRASNVFDL [9-mer peptide]	0.2 h
QTSSIEGAW [9-mer peptide]	0.1 h
QYPAFVLFI [9-mer peptide]	0.2 h
RPAPATGAL [9-mer peptide]	0.3 h
SFHIIEWLF [9-mer peptide]	0.2 h
SFIPIFYQF [9-mer peptide]	1.2 h
STAPTGSWF [9-mer peptide]	0.2 h
STYGISEDL [9-mer peptide]	0.1 h
SYLGLTQPF [9-mer peptide]	0.2 h
SYLQAIGIL [9-mer peptide]	0.1 h
SYQALAFDI [9-mer peptide]	0.5 h
TFMGMNVQF [9-mer peptide]	0.1 h
TFMYVFSTF [9-mer peptide]	0.2 h
TNTQNNDWF [9-mer peptide]	0.2 h

System: Acar3
Assay type: binding, great reed warbler Acrocephalus arundinaceus
Settings: Table S1; top 94 PSCPL-scoring peptides; SPA, 10µM peptide, 125I β2m, folding over night at 18°C, dissociation measured up to 24 hours at 37°C

Sequence	Stability T½ of Acar3 in complex with the peptide
YMWLGARYL [9-mer peptide]	24 min
YWMGGTTYF [9-mer peptide]	48 min

Same assay, conditions: Table S5; half-life estimated from dissociation in scintillation proximity assay; Acar3

Sequence	Stability T½ (h), peptide - Acar3
YMWLGARYL [9-mer peptide]	0.4 h
YWMGGTTYF [9-mer peptide]	0.8 h
